Article PMC10045298, “In Vitro Pharmacokinetic Behavior of Antiviral 3-Amidinophenylalanine Derivatives in Rat, Dog and Monkey Hepatocytes” (Biomedicines, 2023)
Entries after “also recorded” stand apart in the source; their conditions may differ. Like-named read-outs stand apart in the source and are kept apart here.

Tests used:
SARS-CoV-2 [1] = test system: SARS-CoV-2; set-up: method as in PMID 32703818; settings: Calu-3 cells (airway epithelial cells) infected with SARS-CoV-2; cited from earlier work
human serum albumin = settings: cited from earlier work
CYP1A2 = settings: cited from earlier work
CYP2C9 = settings: cited from earlier work
CYP2C19 = settings: cited from earlier work
human CYP3A4 = settings: cited from earlier work
cynomolgus monkey CYP1A2 = settings: cited from earlier work
TMPRSS2 [2] = test system: TMPRSS2; set-up: method as in PMID 35344983; settings: cited from earlier work
SARS-CoV-2 [3] = test system: SARS-CoV-2; set-up: method as in PMID 35344983; settings: human lung epithelium-derived human airway cells; cited from earlier work
SARS-CoV-2 [4] = test system: SARS-CoV-2; set-up: method as in PMID 35344983; settings: K18-human ACE2 transgenic mouse model; cited from earlier work
[5] = Depletion of inhibitors in rat primary hepatocyte suspension (LC-MS/MS), PK prediction; format: in vitro ADME; settings: cryopreserved primary hepatocytes in suspension; rat hepatocytes, 10 µM inhibitor, 5 × 10^5 cells/mL, 0-300 min, scaled to liver/bw
Experimental: (§1) Cryopreserved rat, dog and cynomolgus monkey primary hepatocytes were obtained from Primacyt (Primacyt, Schwerin, Germany). Hepatocytes were thawed using cryopreserved hepatocyte thawing medium (Primacyt, Schwerin, Germany), and cells were centrifuged (10 min, 100× g, 20 °C) to remove supernatants. The viability of hepatocytes was examined by the Trypan blue exclusion method, and it was confirmed that more than 90% of the cells were alive. Cell suspensions were then diluted with serum-free maintenance medium (Primacyt, Schwerin, Germany) after cell counting in Bürker chamber to the appropriate concentration (original concentration of the viable hepatocytes was 10^7 cells/mL).
(§2) Stock solutions of MI-463, MI-472, MI-485 and MI-1900 (10 mM) in dimethyl-sulfoxide were kept at −20 °C. Time courses of the unchanged amount of the inhibitors (in %) after incubation with hepatocytes were measured. Each compound was incubated in cell suspension (at the concentration of 5 × 10^5 cells/mL in 6-well plates) at constant and low-speed shaking at 37 °C in a humid atmosphere containing 5% CO2. […] Cells were incubated with serum-free maintenance medium either without or with each selected MI for 5 h. At various time points (0, 30, 60, 120, 180, and 300 min), the incubation mixtures were sampled (aliquots: 0.15 mL) and terminated by the addition of 0.1 mL ice-cold acetonitrile. The cell debris was separated by centrifugation, and the supernatants were analyzed by LC-MS/MS for quantitation of the remaining amount of the inhibitors.
(§3) For the LC-MS/MS investigations, 120 μL from the incubation mixture samples obtained as described above was removed and mixed with 315 μL chilled acetonitrile and 15 μL triphenylphosphate solution (TPP; 12000 ng/mL in acetonitrile) used as internal standard for the quantitation. After vortex mixing, the samples were centrifuged at 4 °C and 13300 RPM for 10 min. The supernatant was filtered through a PVDF syringe filter of 0.22 μm pore diameter, then transferred to chromatographic vials.
(§4) The LC-MS/MS instrument used for analyzing the MI compounds was a Shimadzu LCMS 8030+ system operated with an electrospray ion source (ESI) in positive multiple reaction monitoring (MRM) mode. A Phenomenex Kinetex C18 EVO 100 × 4.6 mm ID (2.6 µm particle size) column equipped with a 40 × 2 mm C18 guard column was used for the chromatographic separation. Gradient elution was used with eluents “A”: 50 mM ammonium acetate in water (pH 5 set by acetic acid) and “B”: 0.1 v/v% formic acid in acetonitrile. The flow rate was 0.4 mL/min, a chromatographic run took 8 min. The column oven was set to 30 °C, and the autoinjector’s temperature was at 6 °C. The injected volume was 10 µL. Other MS parameters were as follows: interface 4.5 kV; interface temperature 350 °C; desolvation line 300 °C; heat block 400 °C; detector 1.78 kV, nebulizing gas (N2) 3 liters/min, drying gas (N2) 15 liters/min; collision gas (Ar) 230 kPa.
(§5) The intrinsic clearance for hepatocytes (Clint) [mL (min 5 × 10^5 cells) ^−1] was calculated from the decrease in the concentration of MI compounds as follows: Clint = β=ln2/t1/2 [28] For scaling up, the Clint value to obtain Clint per whole liver (g)/bw(kg), the cell concentration in liver, the average liver weight and average body weight parameters were used (Table 1). The value for hepatic clearance (ClH) was calculated as follows: ClH=Clintliver/bw∗fu∗Qplasma/(Clintliver/bw∗fu)+Qplasma where the flow rate of Qplasma = QH* plasma/blood ratio. To calculate ClH, the hepatic flow rate, plasma/blood ratio (Table 1) and fu = 1 values were used. (QH is the hepatic blood flow, while fu is the unbound fraction of the compound.) The hepatic extraction ratio was defined as E = ClH/QH, and the bioavailability (%) was F = (1 − E) * 100 [28, 31, 32, 33].

rat primary hepatocytes = assay: as above; format: in vitro ADME; settings: for Extraction Ratio EH / Classification / Predicted Cl CLH: rat; for Classification: 0.3 cut-off of E between low and intermediate extraction; for Predicted Cl CLH: fu = 1
Experimental: as §1, §2, §3, §4, §5

[6] = Depletion of inhibitors in dog primary hepatocyte suspension (LC-MS/MS), PK prediction; format: in vitro ADME; settings: dog, cryopreserved primary hepatocytes in suspension, dog hepatocytes, 10 µM inhibitor, 5 × 10^5 cells/mL, 0-300 min, scaled to liver/bw
Experimental: as §1, §2, §3, §4, §5

dog primary hepatocytes = assay: as above; format: in vitro ADME; settings: for Extraction Ratio EH / Classification / Predicted Cl CLH: dog; for Depletion of parent compound (in words): 10 µM; for Classification: 0.3 cut-off of E between low and intermediate extraction; for Predicted Cl CLH: fu = 1
Experimental: as §1, §2, §3, §4, §5

[7] = Depletion of inhibitors in cynomolgus monkey primary hepatocyte suspension (LC-MS/MS), PK prediction; format: in vitro ADME; settings: cynomolgus monkey, cryopreserved primary hepatocytes in suspension; macaque hepatocytes, 10 µM inhibitor, 5 × 10^5 cells/mL, 0-300 min, scaled to liver/bw
Experimental: as §1, §2, §3, §4, §5

[8] = test system: cynomolgus monkey primary hepatocytes; assay: as above; format: in vitro ADME; settings: for Depletion of parent compound (in words): cynomolgus monkey hepatocytes, 10 µM, 0-300 min; for Extraction Ratio EH / Classification / Predicted Cl CLH: macaque; for Classification: 0.3 cut-off of E between low and intermediate extraction; for Predicted Cl CLH: fu = 1
Experimental: as §1, §2, §3, §4, §5

TMPRSS2 [9] = settings: competitive inhibition; previous enzyme kinetic measurements; cited from earlier work
matriptase = settings: previous enzyme kinetic measurements, cited from earlier work
H9N2 influenza virus = settings: MDCK cells, matriptase-dependent; cited from earlier work
COVID-19 = test system: COVID-19; set-up: method as in PMID 35803469; settings: repurposed drug candidate; cited from earlier work

| Compound | Binding to human serum albumin (human serum albumin) | Influence on CYP1A2 activity (CYP1A2) | Influence on CYP2C9 activity (CYP2C9) | Influence on CYP2C19 activity (CYP2C19) | Modulation of human CYP3A4 function (human CYP3A4) | Modulation of cynomolgus monkey CYP1A2 (cynomolgus monkey CYP1A2) | CLint scaled at 10 µM [5] [mL/min/kg] | Extraction Ratio EH (rat primary hepatocytes) | Classification (rat primary hepatocytes) | Predicted Cl CLH (rat primary hepatocytes) | CLint scaled at 10 µM [6] [mL/min/kg] | Extraction Ratio EH (dog primary hepatocytes) | Depletion of parent compound (in words) (dog primary hepatocytes; dog hepatocytes, 0-300 min) | Classification (dog primary hepatocytes) | Predicted Cl CLH (dog primary hepatocytes) | CLint scaled at 10 µM [7] [mL/min/kg] | Extraction Ratio EH [8] | Classification [8] | Predicted Cl CLH [8] | further results |
| --- | --- | --- | --- | --- | --- | --- | --- | --- | --- | --- | --- | --- | --- | --- | --- | --- | --- | --- | --- | --- |
| N=C(N)c1cccc(C[C@H](NS(=O)(=O)c2cccc(-c3ccc(Cl)cc3Cl)c2)C(=O)N2CCC(CCN)CC2)c1.O=C(O)C(F)(F)F.O=C(O)C(F)(F)F [MI-432] | did not bind to human serum albumin to a great extent | did not influence the activity | did not influence the activity | did not influence the activity | could modulate | could modulate |  |  |  |  |  |  |  |  |  |  |  |  |  | SARS-CoV-2 virus titer (SARS-CoV-2 [1]): could successfully lower viral titers; also recorded: effectively decrease SARS-CoV-2 virus titer |
| CS(=O)(=O)N[C@@H](CCC(N)=O)C(=O)N[C@@H](Cc1ccccc1)C(=O)N[C@@H](CCCN=C(N)N)C(=O)c1nc2ccccc2s1 [N-0385, Ms-Gln-Phe-Arg-kbt] |  |  |  |  |  |  |  |  |  |  |  |  |  |  |  |  |  |  |  | IC50 (TMPRSS2 [2]): […]; Inhibition of SARS-CoV-2 infection (SARS-CoV-2 [3]): effective; Inhibition of SARS-CoV-2 infection (SARS-CoV-2 [4]): effective |
| COc1ccc(-c2cccc(S(=O)(=O)N[C@@H](Cc3cccc(C(=N)N)c3)C(=O)N3CCN(C(=O)NC4CCCCC4)CC3)c2)c(OC)c1 [MI-1900] | did not bind to human serum albumin to a great extent | did not influence the activity | did not influence the activity | did not influence the activity | could modulate | could modulate | 33.8 | 0.298 | Low-extraction drug | 16.43 | 10.5 | 0.212 | significantly depleted even at 30 min | Low-extraction drug | 6.56 | 16.1 | 0.230 | Low-extraction drug | 10.03 | CLint scaled (dog primary hepatocytes; dog hepatocytes, 10 µM inhibitor, 5 × 10^5 cells/mL, 0-300 min, scaled to liver/bw): 10.5 mL/min/kg; Depletion of parent compound (in words) [8]: depleted at the highest speed; also recorded: rapidly; also recorded: depleted faster; SARS-CoV-2 virus titer (SARS-CoV-2 [1]): could successfully lower viral titers; also recorded: effectively decrease SARS-CoV-2 virus titer; Ki (TMPRSS2 [9]): very low, nanomolar; Ki (matriptase): very low, nanomolar |
| COc1ccc(-c2cccc(S(=O)(=O)N[C@@H](Cc3cccc(C(=N)N)c3)C(=O)N3CCC(NC(=O)NC(C)(C)C)CC3)c2)c(OC)c1 [MI-485] |  |  |  |  |  |  | 37.8 | 0.314 | Intermediate-extraction drug | 17.33 | 22.8 | 0.321 | significantly depleted even at 30 min | Intermediate-extraction drug | 9.93 | 11.4 | 0.183 | Low-extraction drug | 7.98 | Inhibition of H9N2 influenza virus replication (H9N2 influenza virus): showed inhibition; Ki (matriptase; read-out: Ki): < 5 nM |
| COc1ccc(-c2cccc(S(=O)(=O)N[C@@H](Cc3cccc(C(=N)N)c3)C(=O)N3CCC(NC(=O)NC4CCCCC4)CC3)c2)c(OC)c1 [MI-463] | did not bind to human serum albumin to a great extent | did not influence the activity | did not influence the activity | did not influence the activity | could modulate | could modulate | 31.9 | 0.289 | Low-extraction drug | 15.97 | 19.5 | 0.299 | slowly decreased from 180 min; also recorded: pronounced stability against biotransformation | Low-extraction drug | 9.25 | 6.58 | 0.121 | Low-extraction drug | 5.27 | Depletion of parent compound (in words) (rat primary hepatocytes; rat hepatocytes, 10 µM, 0-300 min): elevated depletion rates; Depletion of parent compound (in words) [8]: elevated depletion rates; Ki (TMPRSS2 [9]): very low, nanomolar; Ki (matriptase): very low, nanomolar |
| COc1ccc(-c2cccc(S(=O)(=O)N[C@@H](Cc3cccc(C(=N)N)c3)C(=O)N3CCC(N)CC3)c2)c(OC)c1 [MI-472] |  |  |  |  |  |  | 35.6 | 0.305 | Intermediate-extraction drug | 16.85 | 26.7 | 0.343 | significantly depleted even at 30 min | Intermediate-extraction drug | 10.61 | 12 | 0.190 | Low-extraction drug | 8.27 |  |
| CN(C)C(=O)COC(=O)Cc1ccc(OC(=O)c2ccc(NC(=N)N)cc2)cc1.CS(=O)(=O)O [camostate, camostate mesylate] |  |  |  |  |  |  |  |  |  |  |  |  |  |  |  |  |  |  |  | Outcome of clinical testing for COVID-19 (COVID-19): failed during clinical testing |
